Source: the supplement of paper PMC10331698
± gives the standard deviation of the averaged measurements.

Legend:
Assay in all cases: level (log10 ratio to DMSO vehicle control); higher = higher biomarker level / cell amount than vehicle control
Conditions in all cases: in DMSO
[1] = compound: COC(=O)CCC(F)(F)C(F)(F)C(F)(F)C(F)(F)F [Methyl 2H,2H,3H,3H-perfluoroheptanoate]
Protocol: (§1)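 BioMAP Diversity Plus panel of 12 human primary cell co-culture systems (3C, 4H, LPS, SAg, BT, BF4T, BE3C, CASM3C, HDF3CGF, KF3CT, MyoF, Mphg). Compounds were added 1 h before stimulation and left for 24 h (MyoF 48 h; BT 72 h for soluble read-outs or 6 d for IgG). Biomarkers were read by ELISA, cytotoxicity by SRB, PBMC viability and proliferation by Alamar Blue. Each well value was divided by the mean of 8 DMSO control wells on the same plate and log10 transformed; duplicate blinded samples were tested at 4 concentrations.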

[2] = compound: O=C(O)C(F)(F)OC(F)(F)C(F)(F)OC(F)(F)C(=O)O [Perfluoro-3,6-dioxaoctane-1,8-dioic acid]
Protocol: as §1

[3] = compound: C=CC(F)(F)C(F)(F)C(F)(F)C(F)(F)C(F)(F)C(F)(F)C(F)(F)C(F)(F)C=C [1,8-Divinylperfluorooctane]
Protocol: as §1

[4] = compound: O=C(O)C(F)(F)C(F)(F)F [Perfluoropropanoic acid]
Protocol: as §1

[5] = compound: FC(F)C(F)(F)COCC1CO1 [((2,2,3,3-Tetrafluoropropoxy)methyl)oxirane]
Protocol: as §1

[6] = compound: OCC(F)(F)OC(F)(F)C(F)(F)OC(F)(F)CO [1H,1H,8H,8H-Perfluoro-3,6-dioxaoctane-1,8-diol]
Protocol: as §1

Test System | level (log10) ([1]; 6700 nM) | level (log10) ([1]; 20000 nM) | level (log10) ([1]; 60000 nM) | level (log10) ([2]; 6700 nM) | level (log10) ([2]; 20000 nM) | level (log10) ([2]; 60000 nM) | level (log10) ([3]; 6700 nM) | level (log10) ([3]; 20000 nM) | level (log10) ([4]; 6700 nM) | level (log10) ([4]; 20000 nM) | level (log10) ([4]; 60000 nM) | level (log10) ([5]; 6700 nM) | level (log10) ([5]; 20000 nM) | level (log10) ([5]; 60000 nM) | level (log10) ([6]; 6700 nM) | level (log10) ([6]; 20000 nM) | level (log10) ([6]; 60000 nM)
KF3CT:TIMP-2 | -0.004 ± 0.017 | -0.012 ± 0.011 | -0.0125 ± 0.043 | -0.0075 ± 0.042 | -0.0015 ± 0.04 | 0.0055 ± 0.011 | -0.021 ± 0.021 | -0.0205 ± 0.032 | 0.014 ± 0.062 | -0.0115 ± 0.0092 | 0.0275 ± 0.012 | -0.0135 ± 0.016 | -0.0115 ± 0.019 | -0.0045 ± 0.026 | 0.0025 ± 0.005 | 0.005 ± 0.0014 | 0.0065 ± 0.0092
KF3CT:uPA | -0.007 ± 0.033 | 0.0005 ± 0.0092 | -0.008 ± 0.025 | 0.0005 ± 0.0078 | 0 ± 0.0071 | 0.012 ± 0.0014 | -0.0185 ± 0.0035 | -0.0185 ± 0.028 | -0.0085 ± 0.022 | 0.032 ± 0.027 | 0.0045 ± 0.021 | 0.0015 ± 0.0092 | -0.0045 ± 0.032 | -0.0005 ± 0.015 | -0.0045 ± 0.0092 | -0.011 ± 0.0085 | 0.0005 ± 0.021
MyoF:CD106/VCAM-1 | -0.003 ± 0.0014 | 0.0105 ± 0.021 | 0.018 ± 0.011 | -0.022 ± 0.016 | 0.0025 ± 0.005 | 0.0005 ± 0.019 | 0.006 ± 0.0042 | 0.0075 ± 0.018 | -0.02 ± 0.013 | -0.027 ± 0.016 | 0.0035 ± 0.016 | -0.0075 ± 0.0035 | -0.025 ± 0.031 | -0.011 ± 0.044 | 0.0075 ± 0.019 | -0.009 ± 0.0071 | -0.0045 ± 0.015
MyoF:CXCL8/IL-8 | -0.0085 ± 0.00071 | -0.001 ± 0.0071 | 0.0155 ± 0.039 | -0.0025 ± 0.023 | -0.012 ± 0.0085 | 0.034 ± 0.045 | -0.028 ± 0.014 | 0.0085 ± 0.035 | -0.0055 ± 0.029 | -0.004 ± 0.085 | 0.022 ± 0.075 | -0.0175 ± 0.005 | -0.0145 ± 0.018 | 0.0095 ± 0.025 | 0.006 ± 0.11 | 0.0205 ± 0.088 | 0.0365 ± 0.069
MyoF:Collagen I | 0.0055 ± 0.016 | 0.0035 ± 0.011 | -0.004 ± 0.021 | 0.0015 ± 0.015 | -0.005 ± 0.0099 | 0.002 ± 0.011 | -0.0145 ± 0.016 | -0.005 ± 0.0028 | -0.0205 ± 0.011 | -0.0075 ± 0.026 | 0.0255 ± 0.047 | 0.01 ± 0.0014 | -0.005 ± 0.016 | 0.0155 ± 0.023 | 0.0045 ± 0.021 | -0.0165 ± 0.052 | -0.015 ± 0.04
MyoF:Collagen III | -0.0085 ± 0.0092 | -0.007 ± 0.0014 | -0.015 ± 0.0057 | 0.0035 ± 0.0078 | -0.005 ± 0.017 | 0.0065 ± 0.015 | -0.02 ± 0.0071 | -0.0115 ± 0.012 | 0.0165 ± 0.012 | 0.0135 ± 0.016 | 0.0385 ± 0.015 | -0.0045 ± 0.0035 | -0.0105 ± 0.005 | -0.005 | -0.0225 ± 0.015 | 0.001 | -0.012 ± 0.028
MyoF:Collagen IV | -0.0335 ± 0.03 | -0.0285 ± 0.021 | -0.0115 ± 0.029 | -0.0165 ± 0.013 | -0.011 ± 0.031 | 0.0295 ± 0.00071 | -0.023 ± 0.0085 | 0.0115 ± 0.044 | 0.0075 ± 0.0021 | -0.007 ± 0.011 | 0.0145 ± 0.019 | -0.0035 ± 0.013 | -0.0065 ± 0.016 | 0.0065 ± 0.025 | -0.021 ± 0.013 | -0.0125 ± 0.015 | 0.0065 ± 0.032
MyoF:Decorin | -0.001 ± 0.013 | 0.015 ± 0.0028 | 0.0175 ± 0.052 | -0.0045 ± 0.011 | -0.01 | -0.0005 ± 0.013 | 0.0075 ± 0.013 | 0.0335 ± 0.022 | -0.0255 ± 0.073 | 0.002 ± 0.11 | 0.046 ± 0.089 | -0.0065 ± 0.0035 | -0.007 ± 0.0071 | 0.0075 ± 0.012 | -0.0155 ± 0.011 | 0.003 ± 0.0071 | 0.02 ± 0.02
MyoF:MMP-1 | -0.009 ± 0.0071 | -0.019 ± 0.011 | 0.0305 ± 0.12 | -0.0065 ± 0.0092 | -0.0155 ± 0.019 | 0.0225 ± 0.067 | -0.054 ± 0.037 | 0.034 ± 0.099 | -0.0675 ± 0.11 | -0.0565 ± 0.06 | 0.05 ± 0.095 | 0.0115 ± 0.0035 | -0.031 ± 0.018 | 0.0045 ± 0.005 | -0.022 ± 0.028 | -0.0115 ± 0.011 | 0.024 ± 0.058
